According to ChEMBL document CHEMBL5108048, “Potent GCN2 Inhibitor Capable of Reversing MDSC-Driven T Cell Suppression Demonstrates In Vivo Efficacy as a Single Agent and in Combination with Anti-Angiogenesis Therapy” (J Med Chem, 2022):
pIC50: −log10 of the molar value. Activity calls are given as the source filed them. The calls are words filed in the database; no cut-off is given here.

Columns and labels:
CDK6/cyclin D3 = CDK6/cyclin D3 (Homo sapiens, UniProt Q00534); test: Inhibition of CDK6/Cyclin-D3 (unknown origin); format: protein-complex assay
[1] = Plasma protein binding (unknown origin) assessed as unbound fraction; format: ADME, cell-free
[2] = target: T1, Cyclin-dependent kinase-like 4 (Homo sapiens, UniProt Q5MAI5); test: Inhibition of CDKL4 (unknown origin)
eIF-2-alpha kinase GCN2 [3] = target: T2, eIF-2-alpha kinase GCN2 (Homo sapiens, UniProt Q9P2K8); test: Inhibition of GCN2 (unknown origin)
T2 sequence (Q9P2K8 whole entry): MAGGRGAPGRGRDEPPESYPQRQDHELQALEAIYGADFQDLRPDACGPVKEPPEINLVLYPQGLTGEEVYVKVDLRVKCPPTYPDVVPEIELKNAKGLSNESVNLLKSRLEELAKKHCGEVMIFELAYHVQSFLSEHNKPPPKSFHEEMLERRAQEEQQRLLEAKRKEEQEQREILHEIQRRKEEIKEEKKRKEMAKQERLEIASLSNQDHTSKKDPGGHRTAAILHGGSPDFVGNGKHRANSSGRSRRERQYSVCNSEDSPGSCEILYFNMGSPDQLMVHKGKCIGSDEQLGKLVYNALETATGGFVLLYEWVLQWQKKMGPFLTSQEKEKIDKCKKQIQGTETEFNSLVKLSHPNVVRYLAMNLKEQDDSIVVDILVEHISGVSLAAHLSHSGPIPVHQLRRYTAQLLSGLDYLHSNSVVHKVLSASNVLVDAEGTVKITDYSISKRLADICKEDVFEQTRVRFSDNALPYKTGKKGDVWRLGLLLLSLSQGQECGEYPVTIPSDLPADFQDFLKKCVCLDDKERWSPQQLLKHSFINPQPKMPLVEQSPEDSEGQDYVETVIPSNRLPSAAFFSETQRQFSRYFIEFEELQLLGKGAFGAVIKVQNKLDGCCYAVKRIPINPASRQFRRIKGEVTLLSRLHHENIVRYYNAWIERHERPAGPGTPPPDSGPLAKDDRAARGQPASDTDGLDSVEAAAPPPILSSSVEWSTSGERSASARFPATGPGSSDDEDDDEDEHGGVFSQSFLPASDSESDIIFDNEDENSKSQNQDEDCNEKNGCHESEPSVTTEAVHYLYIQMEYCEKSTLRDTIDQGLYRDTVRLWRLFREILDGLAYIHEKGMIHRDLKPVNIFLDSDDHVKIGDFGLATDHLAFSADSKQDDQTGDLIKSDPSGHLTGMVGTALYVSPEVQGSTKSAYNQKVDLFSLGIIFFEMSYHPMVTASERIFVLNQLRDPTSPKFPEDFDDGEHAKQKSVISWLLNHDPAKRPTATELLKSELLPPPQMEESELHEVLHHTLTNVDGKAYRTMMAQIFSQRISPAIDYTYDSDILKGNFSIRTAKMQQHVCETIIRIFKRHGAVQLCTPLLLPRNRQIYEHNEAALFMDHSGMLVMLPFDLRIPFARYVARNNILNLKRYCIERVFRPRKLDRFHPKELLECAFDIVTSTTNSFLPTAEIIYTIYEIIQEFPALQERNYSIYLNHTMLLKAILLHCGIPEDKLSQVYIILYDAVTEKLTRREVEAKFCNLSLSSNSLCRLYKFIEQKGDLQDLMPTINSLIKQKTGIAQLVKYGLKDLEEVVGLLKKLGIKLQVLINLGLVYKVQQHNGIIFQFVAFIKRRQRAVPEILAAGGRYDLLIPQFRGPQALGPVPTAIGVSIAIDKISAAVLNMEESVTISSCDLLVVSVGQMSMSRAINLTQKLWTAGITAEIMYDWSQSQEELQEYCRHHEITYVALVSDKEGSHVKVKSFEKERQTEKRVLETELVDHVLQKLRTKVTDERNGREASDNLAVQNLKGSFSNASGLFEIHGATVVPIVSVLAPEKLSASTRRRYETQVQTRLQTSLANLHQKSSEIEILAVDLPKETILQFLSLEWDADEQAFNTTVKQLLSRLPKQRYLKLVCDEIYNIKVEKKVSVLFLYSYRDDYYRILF

[4] = Oral bioavailability in Balb/c mouse at 2 mg/kg; format: ADME, organism-based; details: in vivo
[5] = target: T3, Eukaryotic translation initiation factor 2-alpha kinase 1 (Homo sapiens, UniProt Q9BQI3); test: Inhibition of HRI (unknown origin)
T3 sequence (Q9BQI3 whole entry): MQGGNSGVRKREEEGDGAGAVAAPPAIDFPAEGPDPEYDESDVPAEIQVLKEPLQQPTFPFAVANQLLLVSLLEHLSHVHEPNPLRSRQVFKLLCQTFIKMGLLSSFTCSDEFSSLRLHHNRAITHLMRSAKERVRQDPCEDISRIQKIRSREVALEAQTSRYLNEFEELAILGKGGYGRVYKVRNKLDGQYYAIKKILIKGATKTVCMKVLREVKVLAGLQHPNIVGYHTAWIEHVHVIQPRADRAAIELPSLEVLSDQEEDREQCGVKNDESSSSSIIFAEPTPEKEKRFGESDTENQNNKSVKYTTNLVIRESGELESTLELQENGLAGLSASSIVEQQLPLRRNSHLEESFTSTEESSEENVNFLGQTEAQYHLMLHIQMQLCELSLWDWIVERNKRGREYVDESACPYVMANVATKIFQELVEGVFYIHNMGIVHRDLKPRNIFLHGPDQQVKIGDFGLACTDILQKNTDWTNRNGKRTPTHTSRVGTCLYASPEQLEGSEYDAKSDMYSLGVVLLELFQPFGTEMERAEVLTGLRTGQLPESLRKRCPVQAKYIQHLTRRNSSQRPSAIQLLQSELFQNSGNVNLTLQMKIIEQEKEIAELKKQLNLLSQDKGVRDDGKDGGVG

[6] = target: T4, Cyclin-dependent kinase-like 3 (Homo sapiens, UniProt Q8IVW4); test: Inhibition of CDKL3 (unknown origin) assessed as fold change
[7] = target: T5, Eukaryotic translation initiation factor 2-alpha kinase 3 (Homo sapiens, UniProt Q9NZJ5); test: Inhibition of PERK (unknown origin)
T5 sequence (Q9NZJ5 whole entry): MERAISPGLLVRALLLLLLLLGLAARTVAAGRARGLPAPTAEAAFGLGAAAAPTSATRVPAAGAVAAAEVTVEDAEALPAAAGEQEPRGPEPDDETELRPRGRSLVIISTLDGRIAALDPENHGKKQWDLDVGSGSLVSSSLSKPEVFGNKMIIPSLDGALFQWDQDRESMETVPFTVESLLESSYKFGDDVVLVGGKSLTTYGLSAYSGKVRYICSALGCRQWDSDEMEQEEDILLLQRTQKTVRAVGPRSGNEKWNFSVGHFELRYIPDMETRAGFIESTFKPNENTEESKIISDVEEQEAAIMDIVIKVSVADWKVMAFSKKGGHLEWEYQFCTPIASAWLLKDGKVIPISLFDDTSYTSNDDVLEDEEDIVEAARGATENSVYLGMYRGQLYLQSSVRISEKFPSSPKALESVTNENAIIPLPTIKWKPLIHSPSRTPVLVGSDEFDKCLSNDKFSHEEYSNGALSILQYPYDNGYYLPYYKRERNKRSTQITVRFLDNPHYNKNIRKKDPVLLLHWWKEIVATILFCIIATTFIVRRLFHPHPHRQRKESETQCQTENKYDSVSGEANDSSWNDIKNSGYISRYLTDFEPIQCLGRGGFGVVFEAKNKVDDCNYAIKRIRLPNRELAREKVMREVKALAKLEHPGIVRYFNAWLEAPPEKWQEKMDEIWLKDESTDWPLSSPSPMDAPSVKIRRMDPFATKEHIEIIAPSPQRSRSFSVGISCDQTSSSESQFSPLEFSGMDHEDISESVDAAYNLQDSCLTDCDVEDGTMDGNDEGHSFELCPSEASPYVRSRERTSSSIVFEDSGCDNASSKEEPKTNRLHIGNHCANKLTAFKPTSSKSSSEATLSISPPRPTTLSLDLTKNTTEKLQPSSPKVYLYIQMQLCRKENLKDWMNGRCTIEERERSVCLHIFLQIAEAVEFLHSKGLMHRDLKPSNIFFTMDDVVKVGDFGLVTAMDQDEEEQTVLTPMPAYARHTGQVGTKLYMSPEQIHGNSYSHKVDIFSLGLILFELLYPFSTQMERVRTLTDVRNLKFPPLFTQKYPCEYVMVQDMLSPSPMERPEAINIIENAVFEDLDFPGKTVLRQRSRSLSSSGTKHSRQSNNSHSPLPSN

[8] = target: CDK6/cyclin D3 (Homo sapiens) (UniProt P30281+Q00534); test: Inhibition of CDK6/Cyclin-D3 (unknown origin) assessed as fold change; format: protein-complex assay
[9] = Volume of distribution at steady state in Balb/c mouse at 0.5 mg/kg,iv; format: ADME, organism-based; details: in vivo, read-out: Vdss
[10] = target: T6, Transcription initiation factor TFIID subunit 1-like (Homo sapiens, UniProt Q8IZX4); test: Inhibition of TAF1L (unknown origin)
T6 sequence (Q8IZX4 whole entry): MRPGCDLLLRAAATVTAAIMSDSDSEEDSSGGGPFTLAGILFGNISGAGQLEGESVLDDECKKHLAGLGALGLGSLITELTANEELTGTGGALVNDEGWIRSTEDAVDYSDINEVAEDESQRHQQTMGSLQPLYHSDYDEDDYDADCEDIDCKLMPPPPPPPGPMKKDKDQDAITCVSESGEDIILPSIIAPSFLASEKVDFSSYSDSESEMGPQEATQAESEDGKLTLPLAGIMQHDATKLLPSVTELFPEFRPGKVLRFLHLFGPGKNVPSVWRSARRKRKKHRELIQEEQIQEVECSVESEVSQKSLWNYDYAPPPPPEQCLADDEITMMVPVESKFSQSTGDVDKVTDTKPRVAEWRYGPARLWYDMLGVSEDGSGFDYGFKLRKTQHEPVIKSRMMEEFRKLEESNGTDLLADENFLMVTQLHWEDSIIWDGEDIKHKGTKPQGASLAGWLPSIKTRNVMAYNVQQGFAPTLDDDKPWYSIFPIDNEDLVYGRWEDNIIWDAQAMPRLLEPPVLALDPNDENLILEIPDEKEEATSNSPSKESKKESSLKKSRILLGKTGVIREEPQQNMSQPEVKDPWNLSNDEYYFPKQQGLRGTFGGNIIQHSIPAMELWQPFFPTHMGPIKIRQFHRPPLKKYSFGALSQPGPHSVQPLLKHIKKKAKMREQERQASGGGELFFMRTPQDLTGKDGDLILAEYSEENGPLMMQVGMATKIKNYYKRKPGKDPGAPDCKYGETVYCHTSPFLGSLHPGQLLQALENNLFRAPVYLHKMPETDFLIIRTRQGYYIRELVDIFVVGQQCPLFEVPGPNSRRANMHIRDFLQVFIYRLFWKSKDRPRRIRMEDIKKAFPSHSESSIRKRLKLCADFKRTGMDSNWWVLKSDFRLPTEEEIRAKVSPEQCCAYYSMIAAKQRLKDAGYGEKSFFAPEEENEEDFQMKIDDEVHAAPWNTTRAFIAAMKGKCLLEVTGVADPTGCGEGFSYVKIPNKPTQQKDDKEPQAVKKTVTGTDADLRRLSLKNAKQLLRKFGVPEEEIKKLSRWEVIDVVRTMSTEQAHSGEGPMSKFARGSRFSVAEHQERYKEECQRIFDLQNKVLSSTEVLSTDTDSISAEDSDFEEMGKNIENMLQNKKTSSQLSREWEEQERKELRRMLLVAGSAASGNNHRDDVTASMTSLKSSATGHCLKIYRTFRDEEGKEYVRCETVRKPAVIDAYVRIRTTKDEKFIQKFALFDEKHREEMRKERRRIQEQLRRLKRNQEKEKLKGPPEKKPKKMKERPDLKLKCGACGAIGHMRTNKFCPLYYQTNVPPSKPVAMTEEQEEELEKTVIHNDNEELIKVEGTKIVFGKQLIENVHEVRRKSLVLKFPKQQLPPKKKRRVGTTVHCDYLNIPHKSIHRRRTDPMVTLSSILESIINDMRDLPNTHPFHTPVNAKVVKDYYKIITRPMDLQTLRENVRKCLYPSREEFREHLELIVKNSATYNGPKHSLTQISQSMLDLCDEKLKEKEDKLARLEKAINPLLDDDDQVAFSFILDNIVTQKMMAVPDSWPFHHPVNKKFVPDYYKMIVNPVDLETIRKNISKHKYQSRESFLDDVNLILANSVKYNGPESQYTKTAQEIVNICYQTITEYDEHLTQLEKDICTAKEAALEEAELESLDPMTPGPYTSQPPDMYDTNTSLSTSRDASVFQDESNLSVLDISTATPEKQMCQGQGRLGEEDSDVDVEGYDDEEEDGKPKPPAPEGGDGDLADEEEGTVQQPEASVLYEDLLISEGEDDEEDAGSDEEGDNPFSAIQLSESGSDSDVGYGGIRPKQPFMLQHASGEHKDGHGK

[11] = target: T7, Cyclin-dependent kinase-like 2 (Homo sapiens, UniProt Q92772); test: Inhibition of CDKL2 (unknown origin)
T7 sequence (Q92772 whole entry): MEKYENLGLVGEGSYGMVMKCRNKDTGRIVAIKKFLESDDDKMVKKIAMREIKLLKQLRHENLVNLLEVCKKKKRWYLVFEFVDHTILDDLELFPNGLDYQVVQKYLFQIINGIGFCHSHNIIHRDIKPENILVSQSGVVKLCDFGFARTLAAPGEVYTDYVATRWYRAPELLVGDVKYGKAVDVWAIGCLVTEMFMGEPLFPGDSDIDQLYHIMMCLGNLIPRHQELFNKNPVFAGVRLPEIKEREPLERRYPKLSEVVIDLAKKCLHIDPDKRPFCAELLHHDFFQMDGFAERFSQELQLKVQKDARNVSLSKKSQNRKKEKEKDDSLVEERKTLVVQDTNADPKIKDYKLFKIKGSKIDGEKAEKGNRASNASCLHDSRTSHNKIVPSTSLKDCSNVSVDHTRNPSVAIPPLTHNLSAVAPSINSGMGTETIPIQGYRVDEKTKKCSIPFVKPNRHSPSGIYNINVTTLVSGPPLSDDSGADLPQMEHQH

[12] = AUC (0-infinity) in Balb/c mouse at 2 mg/kg,po; format: ADME, organism-based; set-up: time infinity, dose 2 mg/kg, route po; details: in vivo
[13] = target: T6, Transcription initiation factor TFIID subunit 1-like; test: Inhibition of TAF1L (unknown origin) assessed as fold change
Mus musculus [14] = test: In vivo inhibition of GCN2 in Balb/c mouse injected with […] Renca cells assessed as reduction in ATF4 expression level at 15 mg/kg,po bid after 17 days by western blot analysis; format: functional; details: 408 h, time 17 day
[15] = Antitumor activity against mouse LL2 cells xenografted in mouse assessed as tumor growth inhibition at 50 mg/kg,po bid in presence of anti-VEGFR antibody measured after 26 days; format: functional; details: Lewis lung carcinoma, 624 h, time 26 day, read-out: TGI
[16] = Antitumor activity against mouse LL2 cells xenografted in mouse assessed as tumor growth inhibition at 50 mg/kg,po bid measured after 26 days; format: functional; details: Lewis lung carcinoma, 624 h, time 26 day, read-out: TGI
[17] = Oral bioavailability in Sprague-Dawley rat at 2 mg/kg; format: ADME, organism-based; details: in vivo
Mus musculus [18] = test: In vivo inhibition of GCN2 in Balb/c mouse injected with […] Renca cells assessed as reduction in tumor GCN2 expression level at 15 mg/kg,po bid after 17 days; format: functional; details: Neoplasm, 408 h, time 17 day
[19] = AUC (0-infinity) in Sprague-Dawley rat at 2 mg/kg,po; format: ADME, organism-based; set-up: time infinity, dose 2 mg/kg, route po; details: in vivo
eIF-2-alpha kinase GCN2 [20] = target: T2, eIF-2-alpha kinase GCN2; test: Inhibition of GCN2 in human SK-OV-3 cells assessed as reduction in phosphorylation of eIF2alpha by cellular assay; format: cell-based
[21] = target: T4, Cyclin-dependent kinase-like 3; test: Inhibition of CDKL3 (unknown origin)
[22] = target: T8, Interferon-induced, double-stranded RNA-activated protein kinase (Homo sapiens, UniProt P19525); test: Inhibition of PKR (unknown origin) assessed as fold change
T8 sequence (P19525 whole entry): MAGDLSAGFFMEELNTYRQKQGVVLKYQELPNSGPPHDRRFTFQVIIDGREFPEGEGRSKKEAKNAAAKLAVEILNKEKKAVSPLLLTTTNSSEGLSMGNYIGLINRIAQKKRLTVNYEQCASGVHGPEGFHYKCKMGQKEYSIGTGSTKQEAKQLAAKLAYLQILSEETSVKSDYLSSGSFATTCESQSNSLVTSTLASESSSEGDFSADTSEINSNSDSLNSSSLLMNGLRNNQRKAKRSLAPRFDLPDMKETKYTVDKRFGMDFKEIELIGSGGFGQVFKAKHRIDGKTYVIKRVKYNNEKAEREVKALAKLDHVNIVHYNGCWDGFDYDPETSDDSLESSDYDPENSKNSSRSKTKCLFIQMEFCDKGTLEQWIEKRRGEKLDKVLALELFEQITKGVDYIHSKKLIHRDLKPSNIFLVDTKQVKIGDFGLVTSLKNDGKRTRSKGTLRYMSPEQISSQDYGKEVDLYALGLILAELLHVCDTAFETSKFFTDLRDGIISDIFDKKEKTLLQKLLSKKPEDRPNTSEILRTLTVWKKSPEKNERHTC

[23] = Half life in Balb/c mouse at 0.5 mg/kg,iv; format: ADME, organism-based; details: in vivo
Spleen = test: In vivo inhibition of GCN2 in Balb/c mouse injected with […] Renca cells assessed as reduction in spleen GCN2 expression level at 15 mg/kg,po bid after 17 days; format: functional; details: 408 h, time 17 day
[24] = target: T9, Mitogen-activated protein kinase 10 (Homo sapiens, UniProt P53779); test: Inhibition of JNK3 (unknown origin)
T9 sequence (P53779 whole entry): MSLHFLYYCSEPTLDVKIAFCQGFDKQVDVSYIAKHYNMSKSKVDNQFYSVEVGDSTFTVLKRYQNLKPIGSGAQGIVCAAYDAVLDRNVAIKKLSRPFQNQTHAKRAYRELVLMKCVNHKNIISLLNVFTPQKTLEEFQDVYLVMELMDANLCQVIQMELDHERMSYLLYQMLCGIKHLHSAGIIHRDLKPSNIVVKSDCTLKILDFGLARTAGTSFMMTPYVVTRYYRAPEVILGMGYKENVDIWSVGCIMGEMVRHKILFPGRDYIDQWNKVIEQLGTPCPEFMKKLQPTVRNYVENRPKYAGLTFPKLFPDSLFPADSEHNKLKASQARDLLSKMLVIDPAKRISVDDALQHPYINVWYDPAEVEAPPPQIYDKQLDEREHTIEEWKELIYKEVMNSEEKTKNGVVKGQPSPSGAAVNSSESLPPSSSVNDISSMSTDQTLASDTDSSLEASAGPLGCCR

[25] = […] in Sprague-Dawley rat […] assessed as half life at 0.5 mg/kg,iv; format: ADME, organism-based
Panc02 = test: Antitumor activity against […] Panc02 cells xenografted in mouse assessed as decrease in MDSC- induced suppression of CD8+ T cells at 600 nM incubated for 3 days; format: functional, cell-based; details: time 3.0 day
[26] = target: T10, Eukaryotic translation initiation factor 2-alpha kinase 3 (Homo sapiens) (UniProt Q9NZJ5); test: Inhibition of PERK (unknown origin) assessed as fold change
T10 sequence (whole entry): T5 sequence (Q9NZJ5 whole entry)

[27] = target: T8, Interferon-induced, double-stranded RNA-activated protein kinase; test: Inhibition of PKR (unknown origin)
[28] = target: T9, Mitogen-activated protein kinase 10; test: Inhibition of JNK3 (unknown origin) assessed as fold change
[29] = target: T11, Cyclin-dependent kinase-like 2 (Homo sapiens) (UniProt Q92772); test: Inhibition of CDKL2 (unknown origin) assessed as fold change
T11 sequence (whole entry): T7 sequence (Q92772 whole entry)

[30] = target: T3, Eukaryotic translation initiation factor 2-alpha kinase 1; test: Inhibition of HRI (unknown origin) assessed as fold change
eIF-2-alpha kinase GCN2 [31] = target: T2, eIF-2-alpha kinase GCN2; test: Inhibition of GCN2 in human SK-OV-3 cells assessed as reduction in phosphorylation of eIF2alpha in presence of human serum by cellular assay; format: cell-based
[32] = Clearance in Balb/c mouse at 0.5 mg/kg,iv; format: ADME, organism-based; details: in vivo
[33] = target: T1, Cyclin-dependent kinase-like 4; test: Inhibition of CDKL4 (unknown origin) assessed as fold change

With `CNC(=O)[C@]1(C)CC[C@@H](Nc2ncc3c(Br)nn(-c4ccc(-c5nnc(C)s5)cc4)c3n2)C1` as the compound, how does the pIC50 (CDK6/cyclin D3) read?
Its pIC50 is 6.72.

What about the Fu [1] of the same compound?
Its Fu is 1%.

What about the pIC50 [2] of the same compound?
Its pIC50 is 6.93.

And the pIC50 (eIF-2-alpha kinase GCN2 [3])?
The pIC50 was 8.30.

What about the bioavailability [4] of the same compound?
The bioavailability was 50%.

And the pIC50 [5]?
Its pIC50 is less than 6.00.

And the fold change (FC) [6]?
Its fold change (FC) is 28.

And the pIC50 [7]?
Its pIC50 is less than 4.30.

What about the fold change (FC) [8] of the same compound?
Its fold change (FC) is 38.

And the Vd [9]?
Its Vd is 0.8 L/kg.

What about the pIC50 [10] of the same compound?
Its pIC50 is 6.91.

And the pIC50 [11]?
Its pIC50 is 6.78.

What about the AUC(0-inf) [12] of the same compound?
Its AUC(0-inf) is 1680 ng·h/mL.

And the fold change (FC) [13]?
The fold change (FC) was 25.

What about the inhibition in vivo at 15 mg/kg (Mus musculus [14]) of the same compound?
The inhibition in vivo at 15 mg/kg was 65%.

And the inhibition in vivo at 50 mg/kg [15]?
Its inhibition in vivo at 50 mg/kg is 79%.

What about the inhibition in vivo at 50 mg/kg [16] of the same compound?
The inhibition in vivo at 50 mg/kg was 56%.

What about the bioavailability [17] of the same compound?
Its bioavailability is 80%.

What about the inhibition in vivo at 15 mg/kg (Mus musculus [18]) of the same compound?
Its inhibition in vivo at 15 mg/kg is 84%.

What about the AUC(0-inf) [19] of the same compound?
Its AUC(0-inf) is 4600 ng·h/mL.

What about the pIC50 (eIF-2-alpha kinase GCN2 [20]) of the same compound?
Its pIC50 is 7.80.

What about the pIC50 [21] of the same compound?
Its pIC50 is 6.84.

What about the fold change (FC) [22] of the same compound?
The fold change (FC) was greater than 10000.

And the half-life [23]?
Its half-life is 1.2 h.

And the inhibition in vivo at 15 mg/kg (Spleen)?
Its inhibition in vivo at 15 mg/kg is 80%.

What about the pIC50 [24] of the same compound?
The pIC50 was 7.00.

What about the half-life [25] of the same compound?
The half-life was 0.867 h.

And the Activity (Panc02)?
The Activity was “Active”.

And the fold change (FC) [26]?
The fold change (FC) was greater than 10000.

What about the pIC50 [27] of the same compound?
Its pIC50 is less than 4.30.

And the fold change (FC) [28]?
Its fold change (FC) is 20.

What about the fold change (FC) [29] of the same compound?
Its fold change (FC) is 33.

What about the fold change (FC) [30] of the same compound?
The fold change (FC) was greater than 200.

And the pIC50 (eIF-2-alpha kinase GCN2 [31])?
Its pIC50 is 5.88.

What about the clearance [32] of the same compound?
Its clearance is 10 mL/min/kg.

What about the fold change (FC) [33] of the same compound?
The fold change (FC) was 23.
